The NIST ThermoML archive (doi:10.1016/j.jct.2003.11.008)

Assays:
[1] = xn = mol fraction of the nth substance listed; settings: 318.15 K, 101.3 kPa, Liquid
[2] = excess molar enthalpy (molar enthalpy of mixing); xn = mol fraction of the nth substance listed; settings: 318.15 K, 101.3 kPa, Liquid

CCCCCOC(C)=O [pentyl ethanoate] + CCCCCCCCCCCCC
Settings	excess molar enthalpy [kcal/mol]	excess molar volume [m3/mol]
[1], x1 = 0.0955	–	3.07e-07
[1], x1 = 0.1575	–	4.63e-07
[1], x1 = 0.2323	–	6.22e-07
[1], x1 = 0.2961	–	7.29e-07
[1], x1 = 0.3517	–	7.96e-07
[1], x1 = 0.4152	–	8.59e-07
[1], x1 = 0.4689	–	8.87e-07
[1], x1 = 0.5228	–	8.91e-07
[1], x1 = 0.5724	–	8.76e-07
[1], x1 = 0.6226	–	8.35e-07
[1], x1 = 0.667	–	7.77e-07
[1], x1 = 0.7036	–	7.29e-07
[1], x1 = 0.7416	–	6.77e-07
[1], x1 = 0.8311	–	5.02e-07
[1], x1 = 0.8985	–	3.43e-07
[1], x1 = 0.9564	–	1.66e-07
[2], x1 = 0.0653	0.0763	–
[2], x1 = 0.1352	0.138	–
[2], x1 = 0.2036	0.191	–
[2], x1 = 0.2679	0.231	–
[2], x1 = 0.326	0.259	–
[2], x1 = 0.3795	0.278	–
[2], x1 = 0.4178	0.287	–
[2], x1 = 0.4635	0.294	–
[2], x1 = 0.5035	0.293	–
[2], x1 = 0.5376	0.29	–
[2], x1 = 0.5674	0.285	–
[2], x1 = 0.5679	0.28	–
[2], x1 = 0.6418	0.26	–
[2], x1 = 0.6886	0.242	–
[2], x1 = 0.7385	0.217	–
[2], x1 = 0.7897	0.189	–
[2], x1 = 0.8433	0.153	–
[2], x1 = 0.8966	0.108	–
[2], x1 = 0.9506	0.0582	–

CCCCCCCCCCC [undecane] + COC(C)=O
Settings	excess molar enthalpy [kcal/mol]	excess molar volume [m3/mol]
[1], x2 = 0.1232	–	7.69e-07
[1], x2 = 0.2463	–	1.347e-06
[1], x2 = 0.3266	–	1.58e-06
[1], x2 = 0.3942	–	1.734e-06
[1], x2 = 0.4679	–	1.879e-06
[1], x2 = 0.5333	–	1.922e-06
[1], x2 = 0.5823	–	1.908e-06
[1], x2 = 0.6365	–	1.851e-06
[1], x2 = 0.68	–	1.765e-06
[1], x2 = 0.7221	–	1.676e-06
[1], x2 = 0.76	–	1.554e-06
[1], x2 = 0.7954	–	1.415e-06
[1], x2 = 0.8183	–	1.337e-06
[1], x2 = 0.8875	–	9.9e-07
[1], x2 = 0.935	–	6.43e-07
[1], x2 = 0.9683	–	3.52e-07
[2], x2 = 0.1	0.161	–
[2], x2 = 0.203	0.297	–
[2], x2 = 0.2975	0.406	–
[2], x2 = 0.3707	0.475	–
[2], x2 = 0.4315	0.516	–
[2], x2 = 0.4836	0.538	–
[2], x2 = 0.528	0.547	–
[2], x2 = 0.5612	0.549	–
[2], x2 = 0.5935	0.548	–
[2], x2 = 0.6178	0.544	–
[2], x2 = 0.6538	0.533	–
[2], x2 = 0.6915	0.517	–
[2], x2 = 0.7306	0.494	–
[2], x2 = 0.769	0.463	–
[2], x2 = 0.8102	0.418	–
[2], x2 = 0.851	0.37	–
[2], x2 = 0.888	0.299	–
[2], x2 = 0.9283	0.223	–
[2], x2 = 0.9664	0.124	–

CCCCCCCCCCCCCCC [pentadecane] + CCCCCOC(C)=O
Settings	excess molar enthalpy [kcal/mol]	excess molar volume [m3/mol]
[1], x2 = 0.097	–	2.96e-07
[1], x2 = 0.1823	–	5.2e-07
[1], x2 = 0.2485	–	6.56e-07
[1], x2 = 0.3223	–	7.83e-07
[1], x2 = 0.3863	–	8.63e-07
[1], x2 = 0.4452	–	9.09e-07
[1], x2 = 0.5075	–	9.32e-07
[1], x2 = 0.5553	–	9.44e-07
[1], x2 = 0.6017	–	9.31e-07
[1], x2 = 0.6519	–	9.05e-07
[1], x2 = 0.6946	–	8.56e-07
[1], x2 = 0.7436	–	7.87e-07
[1], x2 = 0.7672	–	7.53e-07
[1], x2 = 0.8482	–	5.78e-07
[1], x2 = 0.9107	–	3.7e-07
[1], x2 = 0.9606	–	1.78e-07
[2], x2 = 0.0764	0.0832	–
[2], x2 = 0.1647	0.162	–
[2], x2 = 0.2553	0.227	–
[2], x2 = 0.3274	0.268	–
[2], x2 = 0.3976	0.296	–
[2], x2 = 0.4632	0.312	–
[2], x2 = 0.5222	0.317	–
[2], x2 = 0.5758	0.314	–
[2], x2 = 0.6183	0.305	–
[2], x2 = 0.6614	0.286	–
[2], x2 = 0.7069	0.264	–
[2], x2 = 0.7552	0.235	–
[2], x2 = 0.8041	0.2	–
[2], x2 = 0.856	0.158	–
[2], x2 = 0.9056	0.111	–
[2], x2 = 0.955	0.057	–
